Source: patent publication US12642791B2, “Inhibitors of lysyl oxidases” (UNIVERSITY OF SOUTH CAROLINA, priority 2021, dated 2026)

Legend:
[1] = test system: ACHN kidney cancer cell line; assay: Growth inhibition in 3D collagen:matrigel culture (3D Cell Titer Glo); assay type: cell-based, human; conditions: collagen:matrigel (1:1), uM range
Description: FIG. 38. Dose dependent inhibition of cellular LOX activity and growth inhibition in 3D upon treatment with 6232 and its analogs, 6403 and 6415.in ACHN cancer cell line. Inhibition of cell-based LOX activity in ACHN (A) and growth inhibition in collagen:matrigel (1:1) culture (B) cancer cell lines upon treatment with LOX inhibitors 6232, 6403 and 6415 (uM range). BAPN is used as a positive control (mM range) in 3D cell viability assay. Growth inhibition was measured by using 3D Cell Titer Glo kit.
Collagen solution was prepared at a concentration of 0.5-1 mg/ml from the rat tail collagen I (Corning, USA) with a neutralization step including the addition of 1N NaOH solution. Cells were trypsinazed and resuspended in collagen:matrigel mix (1:1). 8×10^3 cells were seeded into 96-well or μ-Slide 8-well glass bottom chambers. After 1 hour of incubation at room temperature, media was added on top of the solidified collagen:matrigel mix. Drug treatments were done 12 hours after cell seeding.

MAO-A = target: T1, MAO-A (Homo sapiens, UniProt P21397); assay: MAO-GLO assay; assay type: biochemical; conditions: cell-free enzymatic activity assay
T1 construct: purchased Active Motif, USA
T1 sequence (P21397 1-527): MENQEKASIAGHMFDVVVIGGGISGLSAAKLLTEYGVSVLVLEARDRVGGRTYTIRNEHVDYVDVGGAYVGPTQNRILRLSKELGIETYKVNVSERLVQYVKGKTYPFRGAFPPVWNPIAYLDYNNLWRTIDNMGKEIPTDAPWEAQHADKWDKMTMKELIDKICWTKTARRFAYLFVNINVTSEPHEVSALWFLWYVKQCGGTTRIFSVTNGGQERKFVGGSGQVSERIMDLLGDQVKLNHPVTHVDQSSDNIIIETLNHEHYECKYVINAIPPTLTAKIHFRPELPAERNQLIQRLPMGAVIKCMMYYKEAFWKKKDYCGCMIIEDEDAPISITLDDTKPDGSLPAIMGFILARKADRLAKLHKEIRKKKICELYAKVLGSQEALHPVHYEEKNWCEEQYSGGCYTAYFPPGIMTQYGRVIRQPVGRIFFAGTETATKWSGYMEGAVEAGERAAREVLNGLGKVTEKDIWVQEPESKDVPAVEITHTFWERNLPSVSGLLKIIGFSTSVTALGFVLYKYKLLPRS
Description: (§1) MAO-GLO assay (Promega, USA) was used to measure the MAO-A and MAO-B activity upon LOX inhibitor treatment according to the manufacturer's instructions. For the enzyme activity, substrate was used at a concentration of 160 μM and 16 μM for MAO-A and MAO-B, respectively. MAO-A and MAO-B enzymes (Active Motif, USA) were used in 0.2 μg/per well. Reaction mix, enzymes, and drugs (30, 10, 3, 1, 0.3, and 0.1 nM) were mixed and incubated for 3 hours at RT. Then, 50 μl of luciferin was added into wells and incubated for 20 min at RT. Luciferase signals were measured by using a multimode reader.

MAO-B = target: T2, MAO-B (Homo sapiens, UniProt P27338); assay: MAO-GLO assay; assay type: biochemical; conditions: cell-free enzymatic activity assay
T2 construct: purchased Active Motif, USA
T2 sequence (P27338 1-520): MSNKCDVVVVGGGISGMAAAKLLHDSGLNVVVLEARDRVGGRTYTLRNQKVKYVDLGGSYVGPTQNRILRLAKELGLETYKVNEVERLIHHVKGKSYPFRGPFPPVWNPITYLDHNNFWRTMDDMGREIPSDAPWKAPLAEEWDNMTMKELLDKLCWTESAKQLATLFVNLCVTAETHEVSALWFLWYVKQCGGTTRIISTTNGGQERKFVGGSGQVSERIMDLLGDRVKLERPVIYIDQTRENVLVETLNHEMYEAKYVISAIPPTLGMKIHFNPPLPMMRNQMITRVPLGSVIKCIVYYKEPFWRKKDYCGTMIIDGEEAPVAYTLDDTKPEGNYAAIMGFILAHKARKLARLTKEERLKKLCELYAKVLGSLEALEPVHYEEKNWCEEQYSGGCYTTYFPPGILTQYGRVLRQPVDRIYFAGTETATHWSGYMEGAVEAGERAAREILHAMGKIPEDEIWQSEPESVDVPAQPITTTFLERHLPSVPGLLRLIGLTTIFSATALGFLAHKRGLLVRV
Description: as §1

[2] = test system: cellular LOX activity, Caki-1; assay: Cell-based LOX activity in kidney cancer cell line; design: species or system human
Description: FIG. 39. Inhibition of cellular LOX activity in pancreatic and kidney cancer cell lines. Inhibition of cellular LOX activity upon the treatment with BAPN, 6232, 6403 and 6415 in kidney cell line Caki-1 (A) and pancreatic cancer cell lines Mia-Paca-2 (B) and PANC1 (C).
For cell-based lysyl oxidase activity, fluorometric Lysly Oxidase Activity Assay Kit (Abcam, USA) was used according to manufacturer's instructions. Briefly, after the treatment, 50 μl of supernatant from each well was incubated with reagent mix and fluorescence measured in multimode-reader at Ex/Em=540/590 nm wavelength.

SMILES	cell viability in 3D culture [1]	MAO-A activity inhibition (MAO-A)	MAO-B activity inhibition (MAO-B)	cellular LOX activity [2]
Cc1nc(N)sc1-c1csc(Nc2ccc([N+](=O)[O-])cc2)n1 [compound 6232, 4-methyl-5-[2-(4-nitroanilino)thiazol-4-yl]thiazol-2-amine]	decrease in cell viability in 3D culture	did not inhibit	did not inhibit	inhibited cellular LOX activity
Cc1nc(N)sc1-c1csc(N(C)c2ccc(O)cc2)n1 [compound 6415, 4-[[4-(2-amino-4-methyl-thiazol-5-yl)thiazol-2-yl]-methyl-amino]phenol]	decrease in cell viability in 3D culture	did not inhibit	did not inhibit	inhibited cellular LOX activity
CC(=O)Nc1ccc(Nc2nc(-c3sc(N)nc3C)cs2)cc1 [compound 6403, N-[4-[[4-(2-amino-4-methyl-thiazol-5-yl)thiazol-2-yl]amino]phenyl]acetamide]	decrease in cell viability in 3D culture	did not inhibit	did not inhibit	inhibited cellular LOX activity
